Patent US6583283B1, “Polymorphic forms of cipamfylline” (SmithKline Beecham Corporation, priority 1997, dated 2003)

Experiments:
Format in all cases: physicochemical
[1] = Compression and grinding study; details: for Stability to compression / Stability to grinding: polymorphic form followed by IR
Procedure: These spectra were recorded using a Spectra-Tech Plan II microscope coupled to a P-E 1760 FTIR spectrometer (64-256 scans, ratio mode, MCT detector, 4 cm^−1 resolution, dry air purge). Spectra of samples without sample preparation were obtained by mounting crystals on a diamond window. Crushed crystals were prepared using a Spectra-Tech micro-Sample Plan (a compression cell) fitted with diamond windows. A stereo microscope was used to observe the behavior of the crystals during compression. After compression, the diamond windows were separated and a spectrum was recorded of the material adhering to one of the windows.

[2] = Thermal analysis (thermomicroscopy, annealing); details: for Polymorphic form after annealing (by IR): 10° C./min from ambient to ca. 250° C., held ½-1 hour, slow cooling to room temperature
Procedure: Differential Scanning Calorimetry (DSC) could not differentiate the three forms of Cipamfylline. […] However, when the heating rate was reduced sufficiently, the melting endotherm appeared as a fused melt, i.e. two components melting. This behavior was common to both Forms I and II.
The onset of sublimation was different for each form and continued over a wide temperature range (130-290° C. on a non-calibrated instrument). This is not evident on the DSC thermograms. Melting occurred over a range (310-323° C. on a non-calibrated instrument) for all three forms. The possibility of two components melting consecutively could not be distinguished. The sublimate was collected for all three forms and analyzed by IR and NMR.
The annealing procedure consisted of heating at 10° C./min from ambient to ca. 250° C. and holding at this point for ½-1 hour, then allowing the sample to cool slowly to room temperature.
This could explain the similarity in melting points of the three forms.

[3] = Heats of solution in methanol and acetone; details: for Heat of solution, Acetone / Heat of solution, Methanol: endothermic; for Heat of solution, Acetone: solvent acetone; for Heat of solution, Methanol: solvent methanol
Procedure: Heats of solution were determined using acetone and methanol as suitable solvents. Different polymorphic forms give rise to different heats of solution. […] The value of HT, the heat of transition, is equal to the difference in crystal lattice energy of the two forms and is the same in both solvents. This is predicted since individual enthalpies are solvent dependent but difference are not. […] Heats of solution for Form IV are in progress.

Crystalline stability = details: Forms I, II and IV compared
Excerpt: Form I is characterized by a minimum of five years crystalline stability.

[4] = Solubility in recrystallization solvents; details: solvents marked with an asterisk, such as toluene or water

What does the source list for Nc1nc2c([nH]1)c(=O)n(CC1CC1)c(=O)n2CC1CC1 [Form II, 1,3-di-cyclopropylmethyl-8-amino xanthine]?
Stability to compression [1]: stable to compression; Stability to grinding [1]: not to severe grinding; Polymorphic form after annealing (by IR) [2]: converted to Form I; Relative stability suggested by heats of solution ([3]; Form I vs Form II, both solvents): the more stable form; Heat of solution, Acetone ([3]; listed as 2): 5.59 kcal/mol; Heat of solution, Methanol ([3]; listed as 2): 6.47 kcal/mol

With Nc1nc2c([nH]1)c(=O)n(CC1CC1)c(=O)n2CC1CC1 [Form I, 1,3-di-cyclopropylmethyl-8-amino xanthine] as the molecule, how does the Stability to compression [1] read?
The Stability to compression was “stable”.

And the Stability to grinding [1]?
Its Stability to grinding is “stable”.

And the “Relative stability among the three polymorphs” value (Crystalline stability)?
The value was “greatest stability”.

What about the “Relative stability indicated by thermal experiments” value [2] of the same molecule?
Its value is “the most stable form”.

And the “Polymorphic form after annealing (by IR)” value [2]?
Its value is “converted to Form I”.

What about the “Heat of solution, Acetone” value ([3]; listed as 1) of the same molecule?
The value was 3.93 kcal/mol.

What about the “Heat of solution, Methanol” value ([3]; listed as 1) of the same molecule?
The value was 4.81 kcal/mol.

With Nc1nc2c([nH]1)c(=O)n(CC1CC1)c(=O)n2CC1CC1 [Form IV, 1,3-di-cyclopropylmethyl-8-amino xanthine] as the molecule, how does the “Polymorphic conversion under pressure” value ([1]; under pressure, under some circumstances) read?
Its value is “convert to Form I”.

For Nc1nc2c([nH]1)c(=O)n(CC1CC1)c(=O)n2CC1CC1 [Cipamfylline, 1,3-di-cyclopropylmethyl-8-amino xanthine], which Solubility in solvent [4] is on record?
Its Solubility in solvent is “particularly low solubility”.
